One data set relates to HCV. The conditions noted are these: cited from earlier work.
For a further data set, the target named is T1, HCV NS5B (Hepatitis C virus genotype 1b, UniProt Q9WMX2).
T1 construct: The protein was expressed with an 18 amino acid C-terminal truncation to enhance the solubility; made in house; host or cells: E. coli BL21(DE3)
The experiment in a line: HCV NS5B RdRp enzyme assay. Type of data set: biochemical. As to conditions: HCV NS5B RdRp genotype 1b; standard or modified assay not specified. How it is done: HCV NS5B RdRp cloning, expression, and purification. The cDNA encoding the NS5B protein of HCV, genotype 1b, was cloned into the pET21a expression vector. The protein was expressed with an 18 amino acid C-terminal truncation to enhance the solubility. The E. coli competent cell line BL21(DE3) was used for expression of the protein. Cultures were grown at 37° C. for ˜4 hours until the cultures reached an optical density of 2.0 at 600 nm. The cultures were cooled to 20° C. and induced with 1 mM IPTG. Fresh ampicillin was added to a final concentration of 50 μg/ml and the cells were grown overnight at 20° C.
Cell pellets (3 L) were lysed for purification to yield 15-24 mgs of purified NS5B. The lysis buffer consisted of 20 mM Tris-HCl, pH 7.4, 500 mM NaCl, 0.5% triton X-100, 1 mM DTT, 1 mM EDTA, 20% glycerol, 0.5 mg/ml lysozyme, 10 mM MgCl2, 15 ug/ml deoxyribonuclease I, and Complete TM protease inhibitor tablets (Roche). After addition of the lysis buffer, frozen cell pellets were resuspended using a tissue homogenizer. To reduce the viscosity of the sample, aliquots of the lysate were sonicated on ice using a microtip attached to a Branson sonicator. The sonicated lysate was centrifuged at 100,000×g for 1 hr at 4° C. and filtered through a 0.2 μm filter unit (Corning).
The protein was purified using three sequential chromatography steps: Heparin sepharose CL-6B, polyU sepharose 4B, and Hitrap SP sepharose (Pharmacia). The chromatography buffers were identical to the lysis buffer but contained no lysozyme, deoxyribonuclease I, MgCl2 or protease inhibitor and the NaCl concentration of the buffer was adjusted according to the requirements for charging the protein onto the column. Each column was eluted with a NaCl gradient which varied in length from 5-50 column volumes depending on the column type. After the final chromatography step, the resulting purity of the enzyme is >90% based on SDS-PAGE analysis. The enzyme was aliquoted and stored at −80° C.
Standard HCV NS5B RdRp enzyme assay. HCV RdRp genotype 1b assays were run in a final volume of 60 μl in 96 well plates (Costar 3912). The assay buffer is composed of 20 mM Hepes, pH 7.5, 2.5 mM KCl, 2.5 mM MgCl2, 1 mM DTT, 1.6 U RNAse inhibitor (Promega N2515), 0.1 mg/ml BSA (Promega R3961), and 2% glycerol. All compounds were serially diluted (3-fold) in DMSO and diluted further in water such that the final concentration of DMSO in the assay was 2%. HCV RdRp genotype 1b enzyme was used at a final concentration of 28 nM. A polyA template was used at 6 nM, and a biotinylated oligo-dT12 primer was used at 180 nM final concentration. Template was obtained commercially (Amersham 27-4110). Biotinylated primer was prepared by Sigma Genosys. 3H-UTP was used at 0.6 μCi (0.29 μM total UTP). Reactions were initiated by the addition of enzyme, incubated at 30° C. for 60 min, and stopped by adding 25 μl of 50 mM EDTA containing SPA beads (4 μg/μl, Amersham RPNQ 0007). Plates were read on a Packard Top Count NXT after >1 hr incubation at room temperature.
Modified HCV NS5B RdRp enzyme assay. A modified enzyme assay was performed essentially as described for the standard enzyme assay except for the following: The biotinylated oligo dT12 primer was precaptured on streptavidin-coated SPA beads by mixing primer and beads in assay buffer and incubating at room temperature for one hour. Unbound primer was removed after centrifugation. The primer-bound beads were resuspended in 20 mM Hepes buffer, pH 7.5 and used in the assay at final concentrations of 20 nM primer and 0.67 μg/μl beads. Order of addition in the assay: enzyme (14 nM) was added to diluted compound followed by the addition of a mixture of template (0.2 nM), 3H-UTP (0.6 μCi, 0.29 μM), and primer-bound beads, to initiate the reaction; concentrations given are final. Reactions were allowed to proceed for 4 hours at 30° C.
IC50 values for compounds were determined using seven different [I]. […]

The next data set relates to HCV replicon. In words: HCV replicon assay (FRET / luciferase reporter). Format: cell-based, HCV (HUH-7 cells). The conditions noted are these: Hepatitis C virus; HCV replicon cells. The source says:
FRET Assay Preparation. To perform the HCV FRET screening assay, 96-well cell culture plates were used. The FRET peptide (Anaspec, Inc.) (Taliani et al., Anal. Biochem. 1996, 240, 60-67) contains a fluorescence donor, EDANS, near one end of the peptide and an acceptor, DABCYL, near the other end. The fluorescence of the peptide is quenched by […] resonance energy transfer (RET) between the donor and the acceptor, but as the NS3 protease cleaves the peptide the products are released from RET quenching and the fluorescence of the donor becomes apparent. The assay reagent was made as follows: 5× cell Luciferase cell culture lysis reagent from Promega (#E153A) diluted to 1× with dH2O, NaCl added to 150 mM final, the FRET peptide diluted to 20 μM final from a 2 mM stock.
To prepare plates, HCV replicon cells, with or without a Renilla luciferase reporter gene, were trypsinized and placed into each well of a 96-well plate with titrated test compounds added in columns 3 through 12; columns 1 and 2 contained a control compound (HCV protease inhibitor), and the bottom row contained cells without compound. The plates were then placed in a CO2 incubator at 37° C.
Assays. Subsequent to addition of the test compounds described above (FRET Assay Preparation), at various times the plate was removed and Alamar blue solution (Trek Diagnostics, #00-100) was added per well as a measure of cellular toxicity. After reading in a Cytoflour 4000 instrument (PE Biosystems), plates were rinsed with PBS and then used for FRET assay by the addition of 30 ul of the FRET peptide assay reagent described above (FRET Assay Preparation) per well. The plate was then placed into the Cytoflour 4000 instrument which had been set to 340 excite/490 emission, automatic mode for 20 cycles and the plate read in a kinetic mode. Typically, the signal to noise using an endpoint analysis after the reads was at least three-fold. Alternatively, after Alamar blue reading, plates were rinsed with PBS, 50 ul of DMEM (high glucose) without phenol red was added and plates were then used for luciferase assay using the Promega Dual-Glo Luciferase Assay System.
Compound analysis was determined by quantification of the relative HCV replicon inhibition and the relative cytotoxicity values. To calculate cytoxicity values, the average Alamar Blue fluorescence signals from the control wells were set as 100% non-toxic. The individual signals in each of the compound test wells were then divided by the average control signal and multiplied by 100% to determine […]. To calculate the HCV replicon inhibition values, an average background value was obtained from the two wells containing the highest amount of HCV protease inhibitor at the end of the assay period. These numbers were similar to those obtained from naïve Huh-7 cells.
The background numbers were then subtracted from the average signal obtained from the control wells and this number was used as 100% activity. The individual signals in each of the compound test wells were then divided by the averaged control values after background subtraction and multiplied by 100% to determine percent activity. EC50 values for a protease inhibitor titration were calculated as the concentration which caused a 50% reduction in FRET or luciferase activity. The two numbers generated for the compound plate, percent cytoxicity and percent activity were used to determine compounds of interest for further analysis.
The HCV replicon luciferase assay was developed to monitor the inhibitory effects of compounds described in the disclosure on HCV viral replication. Utilization of a replicon luciferase reporter assay was first described by Krieger et al (Krieger N, Lohmann V, and Bartenschlager R, J. Virol. 75(10):4614-4624 (2001)). HUH-7 cells, constitutively expressing the HCV replicon, were grown in Dulbecco's Modified Eagle Media (DMEM) (Gibco-BRL) containing 10% Fetal calf serum (FCS) (Sigma) and 1 mg/ml G418 (Gibco-BRL). […]
On the technique in general: In antiviral work, replicon cells carry a viral genome segment that copies itself.

As usually defined, the IC50 is the concentration that gives 50% inhibition. Higher therefore signals weaker potency. Broadly, the EC50 is the concentration that produces a half-maximal response.

T1 sequence (Q9WMX2 2420-2992): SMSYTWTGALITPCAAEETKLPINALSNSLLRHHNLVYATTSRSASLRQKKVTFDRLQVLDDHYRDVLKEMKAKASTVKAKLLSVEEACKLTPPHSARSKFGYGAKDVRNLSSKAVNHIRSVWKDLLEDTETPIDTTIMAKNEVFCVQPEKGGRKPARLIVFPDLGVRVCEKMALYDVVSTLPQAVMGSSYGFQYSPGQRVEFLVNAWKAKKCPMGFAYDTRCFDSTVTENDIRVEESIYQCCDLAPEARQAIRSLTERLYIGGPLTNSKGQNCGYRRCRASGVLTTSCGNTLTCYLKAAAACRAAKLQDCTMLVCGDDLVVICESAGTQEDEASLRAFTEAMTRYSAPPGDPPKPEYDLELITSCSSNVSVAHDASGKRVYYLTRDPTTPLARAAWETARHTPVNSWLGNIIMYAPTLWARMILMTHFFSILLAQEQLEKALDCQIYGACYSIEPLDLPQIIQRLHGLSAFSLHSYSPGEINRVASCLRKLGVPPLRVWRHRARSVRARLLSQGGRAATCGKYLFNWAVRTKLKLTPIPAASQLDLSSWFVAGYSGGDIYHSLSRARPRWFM

Regarding `CNC(=O)c1c(-c2ccc(F)cc2)oc2cc(N(CCO)S(C)(=O)=O)c(C3CC3)cc12` [HCV-796], in the data set with HCV (extended dosing of the combination regimens), the hepatic toxicity result is listed as “hepatic toxicity observed”. In addition, in the data set with HCV (patients, single agent: transient decrease then rebound, more robust drop with interferon and ribavirin), the “HCV RNA levels in patients” value is “ability to reduce HCV RNA levels in patients”. Turning to alpha-interferon and ribavirin, in the data set with HCV (combination therapy (Poynard et al. 1998)), the sustained efficacy is listed as 40 % of patients. As to `CNC(=O)c1c(-c2ccc(F)cc2)oc2ccc(-c3cc(C(=O)NC4(c5nc6cnccc6o5)CC4)cc(F)c3C)c(F)c12` [4-fluoro-5-(3-fluoro-2-methyl-5-(1-(oxazolo[4,5-c]pyridin-2-yl)cyclopropylcarbamoyl)phenyl)-2-(4-fluorophenyl)-N-methylbenzofuran-3-carboxamide], the concentration for half-maximal inhibition (IC50) against HCV NS5B is 0.02 µM. This compound had an EC50 in the data set with HCV replicon of 0.006 µM.

As to `CNC(=O)c1c(-c2ccc(F)cc2)oc2ccc(-c3cc(C(=O)N[C@@H](C)c4nc5cnccc5o4)c(OC)cc3C)c(F)c12`, inhibition against HCV NS5B was half-maximal at 0.06 µM (IC50). Further, the EC50 in the data set on HCV replicon was 0.02 µM. In turn, `CNC(=O)c1c(-c2ccc(F)cc2)oc2ccc(-c3cc(C(=O)NC4(c5nc6cnccc6o5)CC4)cc(F)c3C)cc12` [5-(3-fluoro-2-methyl-5-(1-(oxazolo[4,5-c]pyridin-2-yl)cyclopropylcarbamoyl)phenyl)-2-(4-fluorophenyl)-N-methylbenzofuran-3-carboxamide] had a concentration for half-maximal inhibition (IC50) against HCV NS5B of 0.02 µM. Also, in the data set with HCV replicon, the midpoint of the response, the EC50, lay at 0.003 µM. Compound `CNC(=O)c1c(-c2ccc(F)cc2)oc2ccc(-c3cc(C(=O)NC4(c5nc6ccncc6o5)CC4)c(OC)cc3C)c(F)c12` [4-fluoro-2-(4-fluorophenyl)-5-(4-methoxy-2-methyl-5-(1-(oxazolo[5,4-c]pyridin-2-yl)cyclopropylcarbamoyl)phenyl)-N-methylbenzofuran-3-carboxamide] yielded a 50% inhibitory concentration (IC50) at HCV NS5B of 0.02 µM. In the data set on HCV replicon, this compound registered an EC50 of 0.004 µM.

`CNC(=O)c1c(-c2ccc(F)cc2)oc2ccc(-c3cc(C(=O)NC4(c5ccc6ccncc6n5)CC4)c(OC)cc3C)c(F)c12` [5-(5-(1-(1,7-naphthyridin-2-yl)cyclopropylcarbamoyl)-4-methoxy-2-methylphenyl)-4-fluoro-2-(4-fluorophenyl)-N-methylbenzofuran-3-carboxamide]: the half-maximal inhibitory concentration (IC50) on HCV NS5B stood at 0.03 µM. Moreover, the concentration giving a half-maximal response (EC50) with HCV replicon turned out to be 0.006 µM.

The values above are taken from patent US8354410B2 (Bristol-Meyers Squibb Company, priority 2010, dated 2013).
